{"source": "patent US20240165097A1", "about": "“PHARMACEUTICAL COMPOSITION FOR THE TREATMENT OF ALZHEIMER'S DISEASE OR DEMENTIA” (Heptares Therapeutics Limited, priority 2021, published 2024)", "system": "patients with mild-to-moderate AD", "test": "Example D: safety and tolerability, adjunctive to donepezil 10 mg per day, 4 weeks", "assay_type": "in vivo, human", "conditions": "for Abdominal pain incidence / Accidental overdose incidence / Decreased lymphocyte count incidence / Decreased white blood cell count incidence / Diarrhoea incidence / Fatigue incidence / Headache incidence / Hyperhidrosis incidence / Lymphopenia incidence / Nausea incidence / Number of TEAEs / SAE incidence / TEAE Severity: Mild / TEAE Severity: Moderate / TEAE Severity: Severe / TEAE incidence / TEAE leading to discontinuation incidence / Treatment-related TEAE incidence / Urinary tract infection incidence / Viral upper respiratory tract infection incidence: randomised dose; for TEAE incidence during maintenance (Days 16-28) / TEAE incidence during titration (Days 1-15): Day 16 dose received", "protocol": "The study was an outpatient study conducted across 18 centres in Poland, Czech Republic, Spain, and Slovakia (NCT03456349, registered at clinicaltrials.gov). Patients were assessed for eligibility during a 42-day screening period and randomised equally to either placebo or a HTL0018318 target dose of 5 mg, 15 mg, or 25 mg per day (FIG. 5A). HTL0018318 was titrated to the target dose during a 2-week titration period (FIG. 5B); investigators could maintain or reduce the dose to limit tolerability/safety issues throughout this period. The study was conducted in accordance with the principles of the Declaration of Helsinki, the International Council for Harmonisation good clinical practice guidelines, and according to all appropriate country regulatory requirements. Relevant independent ethics committees provided approval, and all patients (or their caregiver) provided written informed consent.\nThe primary endpoint of this study was to evaluate the safety and tolerability of HTL0018318. Safety and tolerability were assessed via the incidence and severity of treatment-emergent adverse events (TEAEs), and via evaluation during study visits of vital signs (including blood pressure [BP] and heart rate [HR]), electrocardiogram (ECG) measurements, physical and neurological examinations, laboratory haematology, clinical chemistry and urinalysis.\nSafety was the primary endpoint and was assessed at all visits (screening, baseline, Day 1, Day 6±1, Day 11±1, Day 16±1, Day 28±1, and Day 35±2 [follow-up]) based on: spontaneously reported treatment-emergent adverse events (TEAEs); scheduled physical and neurological examinations; vital sign measurements (body temperature, heart rate [HR], systolic and diastolic BP [SBP and DBP]); 12-lead ECG recordings; and clinical laboratory safety panel. The C-SSRS was administered at baseline and on Day 28±1. TEAEs were coded using the Medical Dictionary for Regulatory Activities (MedDRA) Version 20.\nAll safety analyses used the safety set (SAF; randomised dose). The SAF (randomised dose) included all randomised patients who received at least one dose of the study drug; treatment group assignment was based on the initial randomised dose. All efficacy analyses were considered exploratory and used the full analysis set (FAS). The FAS included all randomised patients with at least one post-baseline efficacy measurement; treatment group assignment was based on the initial randomised dose. All summaries and analyses of PK data used the pharmacokinetic set (PKS). The PKS included all randomised patients with valid PK assessments; treatment group assignment was based on actual dose received.\nBP and HR were measured in triplicate, both supine and standing, in the same arm throughout the study. Standing BP and HR were measured after 3 minutes of standing, and supine BP and HR after 5 minutes of lying down. Measurements were repeated if clinically significant or machine/equipment errors occurred. Out-of-range BP or HR measurements were repeated at the investigator's discretion. Any confirmed clinically significant vital sign measurements were recorded as AEs. If the following measurements were obtained, instructions for additional monitoring, or stopping dosing were to be followed: • SBP>170 mmHg; DBP>110 mmHg • SBP or DBP increase >30% from Day 1 pre-dose level.\nStatistical evaluation was performed using Statistical analysis software (SAS®, SAS Institute, Cary, NC). Changes from baseline in vital signs were analysed using a mixed model for repeated measures with fixed effects for baseline, treatment, time-point and treatment by time-point interaction. The exploratory PD endpoints were analysed using an analysis of covariance with change from baseline as the dependent variable, and baseline and treatment as covariates. The least square means (LSM) for each dose (and difference from placebo) are presented with the 90% CI, P-value, and ES. […]", "key": {"[1]": {"conditions": "two highest doses (15 and 25 mg)"}}, "note": "Marks after values point to notes of the source that are not given here."}
{"smiles": "CCOC(=O)N1C2CCC1CC(N1CCC3(CC1)CNC(=O)C3)C2", "note": "(stereo not shown) [HTL0018318, ethyl 3-(3-oxo-2,8-diazaspiro[4.5]dec-8-yl)-8-azabicyclo[3.2.1]octane-8-carboxylate]", "values": [{"measurement": "Abdominal pain incidence", "setting": "5 mg (n = 15)", "value": "1 (6.7) n (%)"}, {"measurement": "Accidental overdose incidence", "setting": "5 mg (n = 15)", "value": "1 (6.7) n (%)"}, {"measurement": "Decreased lymphocyte count incidence", "setting": "5 mg (n = 15)", "value": "0 n (%)"}, {"measurement": "Decreased white blood cell count incidence", "setting": "5 mg (n = 15)", "value": "0 n (%)"}, {"measurement": "Diarrhoea incidence", "setting": "5 mg (n = 15)", "value": "1 (6.7) n (%)"}, {"measurement": "Fatigue incidence", "setting": "5 mg (n = 15)", "value": "0 n (%)"}, {"measurement": "Headache incidence", "setting": "5 mg (n = 15)", "value": "1 (6.7) n (%)"}, {"measurement": "Hyperhidrosis incidence", "setting": "5 mg (n = 15)", "value": "0 n (%)"}, {"measurement": "Lymphopenia incidence", "setting": "5 mg (n = 15)", "value": "0 n (%)"}, {"measurement": "Nausea incidence", "setting": "5 mg (n = 15)", "value": "1 (6.7) n (%)"}, {"measurement": "Number of TEAEs", "setting": "5 mg (n = 15)", "value": 18, "unit": "n"}, {"measurement": "SAE incidence", "setting": "5 mg (n = 15)", "value": "0 n (%)"}, {"measurement": "TEAE Severity: Mild", "setting": "5 mg (n = 15)", "value": "7 (46.7) n (%)"}, {"measurement": "TEAE Severity: Moderate", "setting": "5 mg (n = 15)", "value": "1 (6.7) n (%)"}, {"measurement": "TEAE Severity: Severe", "setting": "5 mg (n = 15)", "value": "1 (6.7) n (%)"}, {"measurement": "TEAE incidence", "setting": "5 mg (n = 15)", "value": "8 (53.3) n (%)"}, {"measurement": "TEAE leading to discontinuation incidence", "setting": "5 mg (n = 15)", "value": "1 (6.7)^d n (%)"}, {"measurement": "Treatment-related TEAE incidence", "setting": "5 mg (n = 15)", "value": "4 (26.7) n (%)"}, {"measurement": "Urinary tract infection incidence", "setting": "5 mg (n = 15)", "value": "1 (6.7) n (%)"}, {"measurement": "Viral upper respiratory tract infection incidence", "setting": "5 mg (n = 15)", "value": "1 (6.7) n (%)"}, {"measurement": "TEAE incidence during maintenance (Days 16-28)", "setting": "5 mg (n = 17)", "value": "4 (23.5) n (%)"}, {"measurement": "TEAE incidence during titration (Days 1-15)", "setting": "5 mg (n = 17)", "value": "8 (47.1) n (%)"}, {"measurement": "TEAE incidence during maintenance (Days 16-28)", "setting": "10 mg (n = 1)", "value": "0 n (%)"}, {"measurement": "TEAE incidence during titration (Days 1-15)", "setting": "10 mg (n = 1)", "value": "1 (100) n (%)"}, {"measurement": "Abdominal pain incidence", "setting": "15 mg (n = 14)", "value": "0 n (%)"}, {"measurement": "Accidental overdose incidence", "setting": "15 mg (n = 14)", "value": "1 (7.1) n (%)"}, {"measurement": "Decreased lymphocyte count incidence", "setting": "15 mg (n = 14)", "value": "1 (7.1) n (%)"}, {"measurement": "Decreased white blood cell count incidence", "setting": "15 mg (n = 14)", "value": "1 (7.1) n (%)"}, {"measurement": "Diarrhoea incidence", "setting": "15 mg (n = 14)", "value": "0 n (%)"}, {"measurement": "Fatigue incidence", "setting": "15 mg (n = 14)", "value": "0 n (%)"}, {"measurement": "Headache incidence", "setting": "15 mg (n = 14)", "value": "3 (21.4) n (%)"}, {"measurement": "Hyperhidrosis incidence", "setting": "15 mg (n = 14)", "value": "2 (14.3) n (%)"}, {"measurement": "Lymphopenia incidence", "setting": "15 mg (n = 14)", "value": "1 (7.1) n (%)"}, {"measurement": "Nausea incidence", "setting": "15 mg (n = 14)", "value": "1 (7.1) n (%)"}, {"measurement": "Number of TEAEs", "setting": "15 mg (n = 14)", "value": 16, "unit": "n"}, {"measurement": "SAE incidence", "setting": "15 mg (n = 14)", "value": "0 n (%)"}, {"measurement": "TEAE Severity: Mild", "setting": "15 mg (n = 14)", "value": "8 (57.1) n (%)"}, {"measurement": "TEAE Severity: Moderate", "setting": "15 mg (n = 14)", "value": "1 (7.1) n (%)"}, {"measurement": "TEAE Severity: Severe", "setting": "15 mg (n = 14)", "value": "0 n (%)"}, {"measurement": "TEAE incidence", "setting": "15 mg (n = 14)", "value": "8 (57.1) n (%)"}, {"measurement": "TEAE leading to discontinuation incidence", "setting": "15 mg (n = 14)", "value": "1 (7.1)^e n (%)"}, {"measurement": "Treatment-related TEAE incidence", "setting": "15 mg (n = 14)", "value": "7 (50.0) n (%)"}, {"measurement": "Urinary tract infection incidence", "setting": "15 mg (n = 14)", "value": "0 n (%)"}, {"measurement": "Viral upper respiratory tract infection incidence", "setting": "15 mg (n = 14)", "value": "0 n (%)"}, {"measurement": "TEAE incidence during maintenance (Days 16-28)", "setting": "15 mg (n = 16)", "value": "2 (12.5) n (%)"}, {"measurement": "TEAE incidence during titration (Days 1-15)", "setting": "15 mg (n = 16)", "value": "8 (50.0) n (%)"}, {"measurement": "TEAE incidence during maintenance (Days 16-28)", "setting": "25 mg (n = 11)", "value": "2 (18.2) n (%)"}, {"measurement": "TEAE incidence during titration (Days 1-15)", "setting": "25 mg (n = 11)", "value": "6 (54.5) n (%)"}, {"measurement": "Abdominal pain incidence", "setting": "25 mg (n = 16)", "value": "0 n (%)"}, {"measurement": "Accidental overdose incidence", "setting": "25 mg (n = 16)", "value": "0 n (%)"}, {"measurement": "Decreased lymphocyte count incidence", "setting": "25 mg (n = 16)", "value": "1 (6.3) n (%)"}, {"measurement": "Decreased white blood cell count incidence", "setting": "25 mg (n = 16)", "value": "1 (6.3) n (%)"}, {"measurement": "Diarrhoea incidence", "setting": "25 mg (n = 16)", "value": "1 (6.3) n (%)"}, {"measurement": "Fatigue incidence", "setting": "25 mg (n = 16)", "value": "2 (12.5) n (%)"}, {"measurement": "Headache incidence", "setting": "25 mg (n = 16)", "value": "3 (18.8) n (%)"}, {"measurement": "Hyperhidrosis incidence", "setting": "25 mg (n = 16)", "value": "0 n (%)"}, {"measurement": "Lymphopenia incidence", "setting": "25 mg (n = 16)", "value": "1 (6.3) n (%)"}, {"measurement": "Nausea incidence", "setting": "25 mg (n = 16)", "value": "0 n (%)"}, {"measurement": "Number of TEAEs", "setting": "25 mg (n = 16)", "value": 26, "unit": "n"}, {"measurement": "SAE incidence", "setting": "25 mg (n = 16)", "value": "0 n (%)"}, {"measurement": "TEAE Severity: Mild", "setting": "25 mg (n = 16)", "value": "9 (56.3) n (%)"}, {"measurement": "TEAE Severity: Moderate", "setting": "25 mg (n = 16)", "value": "4 (25.0) n (%)"}, {"measurement": "TEAE Severity: Severe", "setting": "25 mg (n = 16)", "value": "0 n (%)"}, {"measurement": "TEAE incidence", "setting": "25 mg (n = 16)", "value": "11 (68.8) n (%)"}, {"measurement": "TEAE leading to discontinuation incidence", "setting": "25 mg (n = 16)", "value": "0 n (%)"}, {"measurement": "Treatment-related TEAE incidence", "setting": "25 mg (n = 16)", "value": "5 (31.3) n (%)"}, {"measurement": "Urinary tract infection incidence", "setting": "25 mg (n = 16)", "value": "1 (6.3) n (%)"}, {"measurement": "Viral upper respiratory tract infection incidence", "setting": "25 mg (n = 16)", "value": "1 (6.3) n (%)"}, {"measurement": "serious TEAEs or deaths", "setting": "5, 15, 25 mg", "value": "no serious TEAEs or deaths"}, {"measurement": "tolerability", "setting": "5-25 mg adjunctive to donepezil", "value": "generally well tolerated"}, {"measurement": "orthostatic BP or HR", "setting": "across doses", "value": "no significant changes"}, {"measurement": "physical or neurological examination findings, laboratory abnormalities, risk of suicide", "setting": "across doses", "value": "no clinically significant physical or neurological examination findings, or laboratory abnormalities"}, {"measurement": "maximum mean elevations in SBP and DBP above placebo", "setting": "all doses, at Tmax, Days 1, 6, 11", "value": "5-10 mmHg"}, {"measurement": "patients who discontinued treatment due to TEAEs", "setting": "one on 5 mg, one on 15 mg", "value": "Two"}, {"measurement": "incidences of cholinergic TEAEs (abdominal pain, diarrhoea, fatigue, nausea)", "setting": "[1]", "value": "0-13%"}, {"measurement": "maximum incidences of cholinergic TEAEs", "setting": "[1]", "value": "7-13%"}]}
